Series [1] is described as follows: DITEST-001 single dose cross-over study: serum total testosterone pharmacokinetics. It is filed as in vivo, human. The conditions noted are these: DITEST both doses fed and 200 mg fasted; testosterone undecanoate fed; hypogonadal men. How it is done: (§1) The study was conducted in male participants from 18 to 80 years of age requiring testosterone replacement therapy for primary or secondary hypogonadism. The study was a randomized, active control, single dose, 2-way cross-over study in 2 cohorts. In each cohort participants who met the entry criteria at screening and baseline were randomized to one of 2 sequences:
(§2) Cohort 1: single dose of 120 mg (3×40 mg) DITEST followed by a single dose of 80 mg (2×40 mg) testosterone undecanoate or a single dose of 80 mg (2×40 mg) testosterone undecanoate followed by a single dose of 120 mg (3×40 mg) DITEST. The 2 treatments were separated by a minimum of a 7-day washout period, with both treatments given in the fed state.
(§3) Cohort 2: single dose of 200 mg (5×40 mg) DITEST (fed) followed by a single dose of 200 mg DITEST (fasted) or a single dose of 200 mg DITEST (fasted) followed by a single dose of 200 mg (5×40 mg) DITEST (fed). The 2 treatments were separated by a minimum of a 7-day washout period.
(§4) Twelve participants were to be recruited into each cohort (note: participants from Cohort 1 could be entered into Cohort 2 after a washout period of at least 3 months between cohorts). Participants were not recruited into Cohort 2 until the results of participants treated in Cohort 1 had been evaluated (this review determined if the intended dose for Cohort 2 needed to be adjusted). […]

Series [2] in a line: DITEST-001 study: safety (TEAEs, SAEs, ECG, vital signs). In kind it is in vivo, human. How it is done: as §1, §2, §3
Twelve participants were to be recruited into each cohort (note: participants from Cohort 1 could be entered into Cohort 2 after a washout period of at least 3 months between cohorts). Participants were not recruited into Cohort 2 until the results of participants treated in Cohort 1 had been evaluated (this review determined if the intended dose for Cohort 2 needed to be adjusted). No other testosterone treatments were allowed for the duration of each cohort (including the washout periods) (note: participants who entered Cohort 1 were able to revert to their usual testosterone treatment, if applicable, on completion of this cohort and prior to screening for Cohort 2, if applicable). Each participant was required to attend the study site for a minimum of either 4 or 5 visits per cohort: a screening assessment, an evaluation of baseline testosterone levels after the washout period from the participant's current medication (only for participants currently on testosterone replacement therapy), both dosing days, and a follow-up visit at the end of the study. On each dosing day, participants were to remain in the study site and PK blood and saliva samples were taken at −0.5, −0.25 (Cohort 1 only), 0, 0.5, 1, 1.5, 2, 2.5, 3, 3.5, 4, 4.5, 5, 5.5, 6, 7, 8, and 10 hours. Further PK blood and saliva samples could be taken at up to 2 additional timepoints per period if deemed necessary based on emerging data. […] If necessary, for practical reasons, participants could stay overnight at the study site or at a nearby hotel the night before and/or the night after the dosing days.
• Testosterone serum concentrations after administration of a single dose of 120 mg or 200 mg DITEST and 80 mg testosterone undecanoate in the fed state, as measured by the primary PK parameters of maximum serum concentration (Cmax) and the area under the curve from 0 to 10 hours (AUC0-10). Secondary Endpoints • Testosterone serum concentrations after administration of a single 200 mg dose of DITEST in the fed and fasted states, as measured by the primary PK parameters of Cmax and AUC0-10. • AEs observed throughout the study. • Changes during the study in vital signs, ECG and safety laboratory data. Exploratory Endpoints: • To assess the levels of testosterone and DHT in serum. • To assess the levels of testosterone and testosterone undecanoate in the lipid and aqueous fractions of blood (testosterone undecanoate only measured in participants in the testosterone undecanoate arm). • To assess the levels of intact testosterone undecanoate in serum for participants who received testosterone undecanoate. • To compare testosterone concentrations in venous and capillary blood samples collected using the Mitra microsampling device with serum concentrations. • To compare the concentrations of testosterone in saliva with serum concentrations. • To evaluate the concentrations of androstenedione in saliva Statistical Methods […]

Series [3] is described as follows: DITEST-001 study: serum testosterone undecanoate and aqueous/lipid fractions of serum. It is filed as in vivo, human.
Description: There is an unmet need for a native oral testosterone therapy for men with androgen (testosterone) deficiency. Current therapy for most hypogonadal patients in Europe and the United States of America (USA) is with either intramuscular injections or gels. These therapies have the disadvantages of pain with injections, skin reactions, and potential spread to partners with gels. At the time this study was designed, there was only one oral formulation of testosterone undecanoate on the market in the UK, but at that time this was not approved in the USA. DITEST is a novel formulation of native testosterone. […] Testosterone undecanoate is considered mainly absorbed through intestinal lymphatics, along with dietary lipids, whilst DITEST was formulated to permit absorption without the requirement for dietary lipids. To examine the proportions absorbed through lymphatics, the aqueous and lipid fractions of serum were separated for the measurement of serum testosterone. Since this was a first-in-human study, participants were closely monitored as inpatients during dosing. […]
as §4
• Testosterone serum concentrations after administration of a single dose of 120 mg or 200 mg DITEST and 80 mg testosterone undecanoate in the fed state, as measured by the primary PK parameters of maximum serum concentration (Cmax) and the area under the curve from 0 to 10 hours (AUC0-10). Secondary Endpoints • Testosterone serum concentrations after administration of a single 200 mg dose of DITEST in the fed and fasted states, as measured by the primary PK parameters of Cmax and AUC0-10. • AEs observed throughout the study. • Changes during the study in vital signs, ECG and safety laboratory data. […]

The conditions of series [4]: cited from earlier work.

Structures are written as SMILES.

On to `CCCCCCCCCCC(=O)O[C@H]1CC[C@H]2[C@@H]3CCC4=CC(=O)CC[C@]4(C)[C@H]3CC[C@]12C` [Testosterone Undecanoate, testosterone undecanoate], for which, in series [1], the “Serum testosterone levels following dosing” value is on record as “within the physiological range”. Moreover, the “QT prolongation, reported as related to study intervention” value in series [2] (Cohort 1: testosterone undecanoate 80 mg and DITEST 120 mg) was “One participant had QT prolongation”. Further, the “Total number of TEAEs reported” value in series [2] (DITEST 120 mg fed, 200 mg fed and 200 mg fasted, testosterone undecanoate 80 mg fed) is 8. In addition, in series [2] (single doses), the “Mean change in diastolic blood pressure” value was determined as 1.5 mmHg, the “Mean change in heart rate” value worked out at 8.5 bpm, the “Mean change in systolic blood pressure” value is 12.8 mmHg and the “SAEs or severe AEs” value is reported as “One SAE”. The “Lipid fraction of serum testosterone undecanoate as part of total serum measurement of testosterone undecanoate” value in series [3] (after 80 mg testosterone undecanoate) is “over half”. Further, the “Serum testosterone undecanoate levels relative to the testosterone levels” value in series [3] (after dosing with 80 mg testosterone undecanoate) worked out at 10 fold. In addition, in series [3] (single oral dose), the “Lipid fraction of testosterone relative to the serum concentration” value was “approximately 1/10”.
One may read the Aqueous Solubility as the dissolved amount per volume that the medium holds. In the case of `C[C@]12CC[C@H]3[C@@H](CCC4=CC(=O)CC[C@@]43C)[C@@H]1CC[C@@H]2O` [Testosterone, (8R,9S,10R,13S,14S,17S)-17-hydroxy-10,13-dimethyl-1,2,6,7,8,9,11,12,14,15,16,17-dodecahydrocyclopent a[a]phenanthren-3-one], in series [4] ((wt/vol) at 20° C.), the “Non-aqueous Solubility, Alcohol” value is 1 in 5 parts; the “Non-aqueous Solubility, Chloroform” value is listed as 1 in 2 parts; the “Non-aqueous Solubility, Dehydrated alcohol” value was 1 in 6 parts; the “Non-aqueous Solubility, Dioxane” value is recorded as “soluble”. Besides, in series [4] ((wt/vol) at 20° C.), the “Non-aqueous Solubility, Ether” value is on record as 1 in 100 parts; the “Non-aqueous Solubility, Ethyl oleate” value is reported as “slightly soluble”; the “Non-aqueous Solubility, Vegetable oils” value is “soluble”. The “Aqueous Solubility” value in series [4] (at 20° C. in water) was <1 mg/mL (insoluble) at 20 °C in water.

The record behind these values is patent publication US12514862B2, “Testosterone containing pharmaceutical composition” (Diurnal Limited, priority 2020, dated 2026).
